According to patent publication US6372297B1, “Wood preservative oxathiazines” (Uniroyal Chemical Company, Inc., priority 1993, dated 2002):
Where two headings read alike, the source gives them in different places.

What was measured:
Assay type in all cases: cell-based
Aspergillus niger = test: Wood preservative efficacy against fungi, agar plate colony diameter
Description: (§1) Each plate was inoculated with a spore suspension or with a small piece of agar (1 mm) from the margin of an actively growing colony of the test fungus. The fungi employed are listed below. After incubation at 22° C. and 70% relative humidity during a period long enough to allow significant growth of untreated controls, the diameters of the fungus colonies were measured and scored using the following rating system: 0=free of fungal growth 1=25% of fungal growth compared to untreated 2=50% of fungal growth compared to untreated 3=75% of fungal growth compared to untreated 4=Growth equal to that of untreated The scores measured for wood preservation efficacy of the compounds of this invention are listed in Tables 6a and 6b. In these Tables, the lower numbers are the most preferred species. Aspergillus niger

Aspergillus flavus = test: as above
Description: as §1, with “flavus” for “niger”

Trichoderma viride = test: as above
Description: as §1, with “Trichoderma viride” for “Aspergillus niger”

Flavobacterium sp. = test: Wood preservative efficacy against bacteria and yeasts, tryptose agar plates; set-up: key: 0 = growth equal to control, 1 = growth inhibited, 2 = no growth
Description: Compositions were prepared by dissolving the compounds shown in Table 1 in 50% ethanol and further diluting with sterile distilled water. […] After cooling, the medium was inoculated with the bacteria listed below. After sufficient growth of the untreated cultures, the compounds were evaluated using the following rating system: 0=growth equal to control 1=inhibition of growth by the compound 2=no growth under the influence of the compound. In this Table, the higher numbers are the most preferred species. Flavobacterium sp. (gram neg)

Aureobasidium pullulans = test: Wood preservative efficacy against fungi, agar plate colony diameter; set-up: key: 1=25%, 2=50%, 3=75%, 4=100% of untreated growth; lower better
Description: The compounds shown in Table 1 were dissolved in 50% ethanol and then diluted with sterile water to give the required concentrations of 1 and 10 ppm in the test agar plates. Malt extract sugar (3%) was added aseptically and uniform distribution was obtained by shaking. Each plate was inoculated with a spore suspension or with a small piece of agar (1 mm) from the margin of an actively growing colony of the test fungus. The fungi employed are listed below. After incubation at 22° C. and 70% relative humidity during a period long enough to allow significant growth of untreated controls, the diameters of the fungus colonies were measured and scored using the following rating system:
1=25% of fungal growth compared to untreated
2=50% of fungal growth compared to untreated
3=75% of fungal growth compared to untreated
4=Growth equal to that of untreated
In these Tables, the lower numbers are the most preferred species.

Enterobacter aerogenes = test: Wood preservative efficacy against bacteria and yeasts, tryptose agar plates; set-up: key: 0 = growth equal to control, 1 = inhibition, 2 = no growth
Description: Compositions were prepared by dissolving the compounds shown in Table 1 in 50% ethanol and further diluting with sterile distilled water. […] After cooling, the medium was inoculated with the bacteria listed below. After sufficient growth of the untreated cultures, the compounds were evaluated using the following rating system: 0=growth equal to control 1=inhibition of growth by the compound 2=no growth under the influence of the compound. In this Table, the higher numbers are the most preferred species. Enterobacter aerogenes (gram neg)

Pseudomonas alcaligenes = test: as above; set-up: key: 0 = growth equal to control, 1 = inhibition, 2 = no growth; conditions: 100 ppm in tryptose agar
Description: Compositions were prepared by dissolving the compounds shown in Table 1 in 50% ethanol and further diluting with sterile distilled water. […] After cooling, the medium was inoculated with the bacteria listed below. After sufficient growth of the untreated cultures, the compounds were evaluated using the following rating system: 0=growth equal to control 1=inhibition of growth by the compound 2=no growth under the influence of the compound. In this Table, the higher numbers are the most preferred species. Pseudomonas alcaligenes (gram neg)

Coriolus versicolor = test: Wood preservative efficacy against fungi, agar plate colony diameter; conditions: for Score of fungicidal activity, G. VERSICLOR: Table 6B; for Score of fungicidal activity, C. VERSICLOR: Test dosage 10 ppm, Table 6A
Description: as §1, with “Coriolus versicolor” for “Aspergillus niger”

Bacillus cereus mycoides = test system: Bacillus cereus mycoides; set-up: scale not given here
Mucor sp. = test: Wood preservative efficacy against fungi, agar plate colony diameter; conditions: Table 6B
Description: as §1, with “Mucor sp.” for “Aspergillus niger”

Row | Structure (SMILES) | Score of fungicidal activity, A. NIGER (Aspergillus niger; 10 ppm, Table 6B) | Score of fungicidal activity, A. FLAVUS (Aspergillus flavus; 10 ppm, Table 6B) | Score of fungicidal activity, T. VIRIDE (Trichoderma viride; 10 ppm, Table 6B) | Score of bactericidal activity, Flavobacter (Flavobacterium sp.; 10 ppm in tryptose agar) | Score of bactericidal activity, Flavobacter (Flavobacterium sp.; 100 ppm in tryptose agar) | Score of fungicidal activity, A. PULLULANS (Aureobasidium pullulans; 10 ppm, Table 6B) | Score of bactericidal activity, E. aerogenes (Enterobacter aerogenes; 10 ppm in tryptose agar) | Score of bactericidal activity, E. aerogenes (Enterobacter aerogenes; 100 ppm in tryptose agar) | Score of bactericidal activity, P. alcalgenes (Pseudomonas alcaligenes) | Score of fungicidal activity, G. VERSICLOR (Coriolus versicolor; 1 ppm) | Score of fungicidal activity, G. VERSICLOR (Coriolus versicolor; 10 ppm) | Score of bactericidal activity, B. cereus mycoides (Bacillus cereus mycoides; 10 ppm in tryptose agar) | Score of bactericidal activity, B. cereus mycoides (Bacillus cereus mycoides; 100 ppm in tryptose agar) | Score of fungicidal activity, MUCOR SP (Mucor sp.; 100 ppm) | Score of fungicidal activity, MUCOR SP (Mucor sp.; 10 ppm) | Score of fungicidal activity, A. NIGER (Aspergillus niger; Test dosage 10 ppm, Table 6A) | Score of fungicidal activity, A. FLAVUS (Aspergillus flavus; Test dosage 10 ppm, Table 6A) | Score of fungicidal activity, T. VIRIDE (Trichoderma viride; Test dosage 10 ppm, Table 6A) | Score of fungicidal activity, A. PULLULANS (Aureobasidium pullulans; Test dosage 10 ppm, Table 6A) | Score of fungicidal activity, C. VERSICLOR (Coriolus versicolor)
1 | C[S+]1CCON=C1c1cc(Cl)cc(Cl)c1 (stereo not drawn) [Compound 19] | 0 | 0 | 2 (50% of growth compared to untreated control) | 0 | 2 | 3 (75% of growth compared to untreated control) | 0 | 0 | 0 | 2 (50% of growth compared to untreated control) | 0 | 0 | 2 | 2 (50% of growth compared to untreated control) | – | – | – | – | – | –
2 | C[S+]1CCON=C1c1ccc(C(F)(F)F)cc1 (stereo not drawn) [Compound 25] | 0 | 0 | 2 (50% of growth compared to untreated control) | 1 | 2 | 3 (75% of growth compared to untreated control) | 0 | 0 | 1 | 3 (75% of growth compared to untreated control) | 0 | 2 | 2 | 0 | 3 (75% of growth compared to untreated control) | – | – | – | – | –
3 | COC(=O)c1cccc(C2=NOCC[S+]2[O-])c1 (stereo not drawn) [Compound 26] | 4 | 4 | 3 (75% of growth compared to untreated control) | 0 | 2 | 4 | 0 | 0 | 0 | – | 4 | 2 | 2 | 2 (50% of growth compared to untreated control) | – | – | – | – | – | –
4 | [O-][S+]1CCON=C1c1ccc(Cl)c(Cl)c1 (stereo not drawn) [Compound 4] | – | – | – | – | 2 | – | – | 0 | 1 | – | – | 2 | 2 | – | – | 0 | 0 | 1 (25% of growth compared to untreated control) | 2 (50% of growth compared to untreated control) | 0
5 | [O-][S+]1CCON=C1c1cccs1 (stereo not drawn) [Compound 8] | – | – | – | – | 2 | – | – | 2 | 2 | – | – | 0 | 2 | – | – | 1 (25% of growth compared to untreated control) | 1 (25% of growth compared to untreated control) | 2 (50% of growth compared to untreated control) | 2 (50% of growth compared to untreated control) | 0
6 | C[S+]1CCON=C1c1ccc(Cl)cc1 (stereo not drawn) [Compound 1] | – | – | – | – | 2 | – | – | 0 | 1 | – | – | 2 | 2 | – | – | 0 | 0 | 2 (50% of growth compared to untreated control) | 3 (75% of growth compared to untreated control) | 0
